Measured values: patent US20100234323A1, “Antimicrobial Acids and Salts” (priority 2006, published 2010)
Where “and” joins values, the source holds several entries; their conditions need not be identical. Equal entries are not always repeated.

Columns and labels:
[1] = test system: Aspergillus niger (DSM 1957/ATCC 6275); test: Fungicidal activity, European Standard EN12175 spore suspension test; format: cell-based; conditions: test conc. 1%; for log reduction A. niger: vs water control
Procedure: (§1) Fungicidal activity is tested according to European Standard EN12175. A fungal spore suspension with a spore cell count of about 10^6 cfu/ml is contacted with appropriate concentrations of the specific substances (Examples) mentioned in the tables below and the residual spore cell count is determined after incubation times of 30 and 60 min at room temperature under continuous stirring. Penicillium funiculosum (DSM 1960), Aspergillus niger (DSM 1957/ATCC 6275) and Aureobasidium pullulans (DSM 2404) are tested as important mold strains. DSM refers to microorganisms obtainable under the numbers given at the DSMZ (Deutsche Sammlung von Mikroorganismen and Zellkulturen GmbH, Braunschweig, Germany). ATCC numbers refer to organisms obtainable from the American Type Culture Collection (see Example 6). The results are given as a log reduction at each incubation time in comparison to a water control in table (d): […]

[2] = test system: Aureobasidium pullulans (DSM 2404); test: as above; format: cell-based; conditions: test conc. 1%; for log reduction A. pull.: vs water control
Procedure: as §1

[3] = test system: Penicillium funiculosum (DSM 1960); test: as above; format: cell-based; conditions: test conc. 1%; for log reduction P. funic.: vs water control
Procedure: as §1

[4] = test system: S. aureus ATCC 6538; test: Antibacterial efficacy on treated polypropylene non-woven, modified AATCC-100; format: cell-based, Staphylococcus aureus
Procedure: (§2) A solution of Example 1 in a solvent (tetrahydrofurane and/or acetone) is prepared with a concentration of 1 or 2% of the compound of Example 1. This solution is sonicated for 1 min to ensure complete dissolution of the test acid compound. Then polypropylene non-woven (10×10 cm) is dipped into the solution (100 ml) and left under sonication for 1 min. The non-woven is taken out of the solution and dried on air at room temperature for some hours. This non-woven is then used for microbial testing as follows:
(§3) The efficacy of Example 1 is tested after application onto polypropylene non-woven material according to a modified AATCC-100 standard for assessing antibacterial activity on textiles. Overnight cultures of two test bacteria are contacted with the treated non-woven material by pipetting a diluted suspension onto the surface of the material. The non-woven is then incubated for 24 hours at 37° C., and then the cell count is determined by elution of the materials into a neutralizing medium, dilution series and plate count technique. As in the basic test for microbicidal activity (Example 6), Staphylococcus aureus is used as the gram+ and Escherichia coli as the gram-organism.
(§4) The results are given in tables (f) and (g) as cell count directly after inoculation and after 24 hours incubation time in comparison to an untreated polypropylene non-woven as the blank.

[5] = test system: Staphylococcus aureus cells; test: Antiadhesive efficacy on coated PMMA test specimen, antibody colorimetric assay; format: cell-based; conditions: specimen coated from 0.50% solution in EtOH; S. aureus suspension 1 hour at 30°
Procedure: The antiadhesive efficacy (inhibition of adhesion of microorganisms) is tested after temporarily attaching various compounds to PMMA test specimen by incubation of the test specimen in a 0.5% solution in ethanol. The coated specimen are then dried and afterwards incubated in a suspension of Staphylococcus aureus cells for 1 hour at 30° under shaking. After some washing steps, the attached cells are detected via binding of a primary antibody and—after incubation of night and again washing steps—binding of a secondary antibody with alkaline phosphatase attached. The adhesion is then determined in a colorimetric assay in comparison to an untreated PMMA test specimen, which is calculated as showing 100% adhesion.

[6] = test system: Escherichia coli (ATCC 10535); test: Microbicidal activity, European Standard EN1040 suspension test; format: cell-based; conditions: for E. coli cfu/mL (residual cell count): room temperature
Procedure: (§5) Microbicidal activity of different anionic siloxanes with carboxyl groups is tested according to European Standard EN1040. A bacterial suspension with a cell count of about 10^7 cfu/ml (cfu stands for colony-forming units) is contacted with appropriate concentrations of the specific substances and the residual cell count is determined after incubation times of 5 and 30 min. at room temperature under continuos stirring. Staphylococcus aureus (ATCC 5638, American Type Culture Collection, Manassas, USA) is tested as gram+ (gram positive) and Escherichia coli (ATCC 10535, American Type Culture Collection) as gram-organism. The results are given as a log reduction at each incubation time in comparison to a water control in the following tables (a) and (b): […]

[7] = test system: Staphylococcus aureus (ATCC 5638); test: as above; format: cell-based; conditions: for S. aureus cfu/mL (residual cell count): room temperature
Procedure: as §5

[8] = test system: E. coli ATCC 10536; test: Antibacterial efficacy on treated polypropylene non-woven, modified AATCC-100; format: cell-based, Escherichia coli
Procedure: as §2, §3, §4

[9] = 1% in EtOH (ethanolic stock solution), 5 min
[10] = 1% in EtOH (ethanolic stock solution), 30 min
[11] = 1% in H2O (stock solution in water), 5 min
[12] = 1% in H2O (stock solution in water), 30 min
[13] = test concentration 1%, 5 min, vs water control
[14] = test concentration 1%, 30 min, vs water control
[15] = test concentration 1000 ppm, 5 min
[16] = test concentration 1000 ppm, 30 min

C[Si]1(CCCC(CC(=O)O)C(=O)O)O[Si](C)(CCCC(CC(=O)O)C(=O)O)O[Si](C)(CCCC(CC(=O)O)C(=O)O)O[Si](C)(CCCC(CC(=O)O)C(=O)O)O1 (centres unmarked) [Example 1]
A. niger cfu/mL (residual spore cell count) ([1]; 30 min): 1.1E+06 cfu/mL
log reduction A. niger ([1]; 30 min): <1
A. niger cfu/mL (residual spore cell count) ([1]; 1 h): 1.2E+06 cfu/mL
log reduction A. niger ([1]; 1 h): <1
A. pull. cfu/mL (residual spore cell count) ([2]; 30 min): 2.1E+05 cfu/mL
log reduction A. pull. ([2]; 30 min): <1
A. pull. cfu/mL (residual spore cell count) ([2]; 1 h): 2.2E+05 cfu/mL
log reduction A. pull. ([2]; 1 h): <1
P. funic. cfu/mL (residual spore cell count) ([3]; 30 min): 4.0E+06 cfu/mL
log reduction P. funic. ([3]; 30 min): <1
P. funic. cfu/mL (residual spore cell count) ([3]; 1 h): 3.8E+06 cfu/mL
log reduction P. funic. ([3]; 1 h): <1
activity against S. aureus (in words) ([4]; applied at 2%): full activity
activity against S. aureus (in words) ([4]; non-woven treated with 1%): some but inconsistent activity
S. aureus cell count, 24 hours ([4]; polypropylene nonwoven treated with 2% solution, 24 hours at 37° C.): <100 cfu/sample
results on PMMA (adhesion; untreated PMMA = 100% adhesion) [5]: 85%
E. coli cfu/mL [6, 9]: 1.37E+06 cfu/mL
log reduction E. coli [6, 9]: 1.2
E. coli cfu/mL [6, 10]: 0.00E+00 cfu/mL
log reduction E. coli [6, 10]: >5
E. coli cfu/mL [6, 11]: 4.62E+06 cfu/mL and 5.03E+06 cfu/mL
log reduction E. coli [6, 11]: <1
E. coli cfu/mL [6, 12]: 1.97E+06 cfu/mL and 2.09E+06 cfu/mL
log reduction E. coli [6, 12]: 1.1
E. coli cfu/mL (residual cell count) ([6]; test concentration 1%, 5 min): 0.00E+00 cfu/mL
log reduction E. coli [6, 13]: >5
E. coli cfu/mL (residual cell count) ([6]; test concentration 1%, 30 min): 0.00E+00 cfu/mL
log reduction E. coli [6, 14]: >5
S. aureus cfu/mL [7, 9]: 3.45E+06 cfu/mL
log reduction S. aureus [7, 9]: 1
S. aureus cfu/mL [7, 10]: 1.10E+04 cfu/mL
log reduction S. aureus [7, 10]: 3.3
S. aureus cfu/mL [7, 11]: 6.98E+06 cfu/mL and 8.19E+06 cfu/mL
log reduction S. aureus [7, 11]: <1
S. aureus cfu/mL [7, 12]: 9.55E+05 cfu/mL and 1.12E+06 cfu/mL
log reduction S. aureus [7, 12]: 1.3
S. aureus cfu/mL (residual cell count) ([7]; test concentration 1%, 5 min): 1.20E+04 cfu/mL
log reduction S. aureus [7, 13]: 3.1
S. aureus cfu/mL (residual cell count) ([7]; test concentration 1%, 30 min): 0.00E+00 cfu/mL
log reduction S. aureus [7, 14]: >5
activity against E. coli (in words) ([8]; applied at 2%): high activity
activity against E. coli (in words) ([8]; non-woven treated with 1%): no activity

C[Si]1(CCCP(=O)(O)O)O[Si](C)(CCCP(=O)(O)O)O[Si](C)(CCCP(=O)(O)O)O[Si](C)(CCCP(=O)(O)O)O1 (centres unmarked) [Example 2]
E. coli cfu/mL [6, 15]: 1.50E+04 cfu/mL
log reduction E. coli [6, 15]: 3.2
E. coli cfu/mL [6, 16]: 0.00E+00 cfu/mL
log reduction E. coli [6, 16]: >5
S. aureus cfu/mL [7, 15]: 1.42E+03 cfu/mL
log reduction S. aureus [7, 15]: 4.3
S. aureus cfu/mL [7, 16]: 0.00E+00 cfu/mL
log reduction S. aureus [7, 16]: >5

C[Si](C)(C)O[Si](C)(C)O[Si](C)(CCCC(CC(=O)O)C(=O)O)O[Si](C)(C)C (centres unmarked) [Example 4]
A. niger cfu/mL (residual spore cell count) ([1]; 30 min): 1.5E+04 cfu/mL
log reduction A. niger ([1]; 30 min): 2.0
A. niger cfu/mL (residual spore cell count) ([1]; 1 h): 1.3E+04 cfu/mL
log reduction A. niger ([1]; 1 h): 2.1
A. pull. cfu/mL (residual spore cell count) ([2]; 30 min): 1.3E+05 cfu/mL
log reduction A. pull. ([2]; 30 min): <1
A. pull. cfu/mL (residual spore cell count) ([2]; 1 h): 9.0E+04 cfu/mL
log reduction A. pull. ([2]; 1 h): <1
P. funic. cfu/mL (residual spore cell count) ([3]; 30 min): 4.8E+05 cfu/mL
log reduction P. funic. ([3]; 30 min): 1.0
P. funic. cfu/mL (residual spore cell count) ([3]; 1 h): 1.14E+05 cfu/mL
log reduction P. funic. ([3]; 1 h): 1.6
results on PMMA (adhesion; untreated PMMA = 100% adhesion) [5]: 46%
E. coli cfu/mL (residual cell count) ([6]; test concentration 1%, 5 min): 1.03E+05 cfu/mL
log reduction E. coli [6, 13]: 2.3
E. coli cfu/mL (residual cell count) ([6]; test concentration 1%, 30 min): 0.00E+00 cfu/mL
log reduction E. coli [6, 14]: >5
S. aureus cfu/mL (residual cell count) ([7]; test concentration 1%, 5 min): 3.22E+06 cfu/mL
log reduction S. aureus [7, 13]: <1
S. aureus cfu/mL (residual cell count) ([7]; test concentration 1%, 30 min): 1.67E+04 cfu/mL
log reduction S. aureus [7, 14]: 2.9

C[Si](C)(CCCC(CC(=O)O)C(=O)O)O[Si](C)(C)O[Si](C)(C)O[Si](C)(C)O[Si](C)(C)O[Si](C)(C)O[Si](C)(C)O[Si](C)(C)O[Si](C)(C)O[Si](C)(C)O[Si](C)(C)O[Si](C)(C)CCCC(CC(=O)O)C(=O)O (centres unmarked) [Example 5]
A. niger cfu/mL (residual spore cell count) ([1]; 30 min): 7.0E+05 cfu/mL
log reduction A. niger ([1]; 30 min): <1
A. niger cfu/mL (residual spore cell count) ([1]; 1 h): 6.0E+05 cfu/mL
log reduction A. niger ([1]; 1 h): <1
A. pull. cfu/mL (residual spore cell count) ([2]; 30 min): 3.5E+05 cfu/mL
log reduction A. pull. ([2]; 30 min): <1
A. pull. cfu/mL (residual spore cell count) ([2]; 1 h): 3.4E+05 cfu/mL
log reduction A. pull. ([2]; 1 h): <1
P. funic. cfu/mL (residual spore cell count) ([3]; 30 min): 2.5E+06 cfu/mL
log reduction P. funic. ([3]; 30 min): <1
P. funic. cfu/mL (residual spore cell count) ([3]; 1 h): 2.7E+06 cfu/mL
log reduction P. funic. ([3]; 1 h): <1
results on PMMA (adhesion; untreated PMMA = 100% adhesion) [5]: 50%
E. coli cfu/mL (residual cell count) ([6]; test concentration 1%, 5 min): 1.54E+07 cfu/mL
log reduction E. coli [6, 13]: <1
E. coli cfu/mL (residual cell count) ([6]; test concentration 1%, 30 min): 3.58E+06 cfu/mL
log reduction E. coli [6, 14]: <1
S. aureus cfu/mL (residual cell count) ([7]; test concentration 1%, 5 min): 1.34E+07 cfu/mL
log reduction S. aureus [7, 13]: <1
S. aureus cfu/mL (residual cell count) ([7]; test concentration 1%, 30 min): 7.86E+06 cfu/mL
log reduction S. aureus [7, 14]: <1
